The values that follow come from paper PMC9200803, “Design, synthesis, and biological evaluation of tetrahydroquinolinones and tetrahydroquinolines with anticancer activity” (Scientific Reports, 2022).

Data set [1] deals with A-549 cells. Nature of the data set: MTT cell viability assay, A-549. It counts as cell-based, human. The conditions noted are these: for IC50: Homo sapiens, A549, MTT, 72 h, IC50 ± SD. As for the experimental part:
(§1) To evaluate the effects of the newly synthesized tetrahydroquinolin-2(1H)-one derivatives on cell viability, we treated human colon cancer cells HCT-116, human breast cancer cells MCF-7, and human non-small cell lung cancer cells A-549 with different concentrations of the compounds for 72 h. After incubation, the MTT (3-(4,5-dimethylthiazol-2-yl)-2,5-diphenyltetrazolium bromide) assay was performed and the cytotoxic potency of compounds (expressed in IC50) on the cells was determined in comparison to control cells treated with 1% of dimethyl sulfoxide (DMSO) (Table 1). […] We also compared the activity of 20d and 19b to the reference control drug Cisplatin, which is widely used in chemotherapy.
(§2) A-549 (CCL-185) and MCF-7 ([…]) cells were cultured in RPMI-1640 medium, while HCT-116 (CVCL-427), (hMLH1)-deficient (MMR^–) and hMLH1-proficient (MMR^+) RKO cells were cultured in McCoy’s 5A medium. The culture media were supplemented with 10% fetal bovine serum, 2 mM L-glutamine, and antibiotics (penicillin 62.6 µg/ml and streptomycin 40 µg/ml). Cultivation of cell lines was carried out at 37 °C under a humidified atmosphere containing 5% CO2, and the cultures were routinely screened for Mycoplasma contamination. A-549, MCF-7, and HCT-116 cells were obtained from American Type Culture Collection (ATCC), while RKO colon carcinoma cells were a kind gift of Dr Timothy Kinsella (Brown University, USA).
(§3) The viability of cells was determined in response to the newly synthesized compounds using the MTT (Sigma-Aldrich) assay. Briefly, cells were seeded into 96-well plates and allowed to attach overnight. Then, cells were exposed to various concentrations of compounds for 24, 48 or 72 h. Negative controls were treated with the same amount of DMSO solvent (1%). After treatment, the MTT solution (0.4 mg/ml) was added to each well and allowed to react with cells for 2–3 h at 37 °C. Next, the medium was removed, the formazan product formed was dissolved in 100 μl of DMSO, and the absorbance was determined at 540 nm using an ASYS UVM340 microplate reader (Biochrom Ltd.). The IC50 value, which represents the concentration of the compound required to inhibit cell growth by 50% compared to vehicle, was calculated using GraphPad Prism 8 software based on the curves plotting survival against dose averaged from at least three independent experiments.
Background: Formazan colour is commonly taken as a measure of viable cells.

The test system of data set [2] is MCF-7 cells. The data set is described as follows: MTT cell viability assay, MCF-7. Format: cell-based, human. The conditions noted are these: Homo sapiens, MCF7, 72 h, IC50 ± SD. As for the experimental part:
as §1, §2, §3

Data set [3] deals with HCT-116 cells. Nature of the data set: Cell cycle distribution analysis by flow cytometry (PI staining). It counts as cell-based, human. The conditions noted are these: HCT-116, 24 to 72 h, vs vehicle. As for the experimental part: Based on their antiproliferative activity, 20d and 19b were evaluated for their effect on cell cycle phase distribution and DNA content by flow cytometry.
HCT-116 and A-549 cells were seeded into culture plates and allowed to attach overnight. Then, cells were incubated with the investigated compounds for the indicated time points. After incubation, the harvested cells were fixed with ice-cold 75% ethanol and stored overnight at − 20 °C. Next, cells were rehydrated with PBS in ice for 15 min and washed twice in PBS. Finally, cells were stained with […] propidium iodide (PI) and […] RNase A in PBS for 30 min at room temperature. Cell cycle distribution was determined using a Guava easyCyte 8 flow cytometer (Merck Millipore) and FlowJo v10 software.
A general note: A flow cytometer gives signals particle by particle.

The subject of data set [4] is HCT-116 cells. Nature of the data set: MTT cell viability assay, HCT-116. The conditions noted are these: 72 h; for IC50: MTT, IC50 ± SD. It counts as cell-based, human. As for the experimental part: as §1, §2, §3
The subject of data set [5] is HCT-116 cells. The data set is described as follows: Colony formation (clonogenic) assay. It counts as cell-based, human. The conditions noted are these: HCT-116, 24 h pretreatment, 9 days culture. As for the experimental part:
A total of 500 HCT-116 cells/well was seeded into six-well plates. After attachment, cells were pretreated with DMSO (1%) or various concentrations of 20d and 19b for 24 h. Following incubation, the medium was changed, and cells were cultured for 9 days. After culturing, cells were washed with phosphate-buffered saline (PBS), fixed with 100% methanol for 30 min, and then stained with 0.5% crystal violet for 15 min. The plates were air-dried, and visible colonies were counted using ImageJ software. The percentage viability of cells was calculated in comparison to the control.

The subject of data set [6] is HEK293 cells. Nature of the data set: MTT cell viability assay, HEK293. Format: cell-based, human. The conditions noted are these: Homo sapiens, HEK293, IC50 ± SD.

As usually defined, the melting point is the temperature of the solid-liquid transition. For orientation: IC50 means the concentration that inhibits the measured activity by half. High values mean lower potency, low ones higher potency.

`COc1cc(-c2ccccc2)c2c(n1)C(OC(=O)Nc1ccc([N+](=O)[O-])cc1)CCC2` (stereo not shown) [Compound 19b, (2-methoxy-4-phenyl-5,6,7,8-tetrahydroquinolin-8-yl) N-(4-nitrophenyl)carbamate]: the melting point lay within 183 to 185 °C. In addition, the “fold lower concentration than Cisplatin suppressing 50% of cell viability” value in data set [1] (A-549) turned out to be 5 fold. In data set [1], the half-maximal inhibitory concentration (IC50) was determined as 15.7 ± 2.56 µM. The compound further came in with an IC50 in data set [2] greater than 50 µM. In data set [3], the “increase in the number of cells in the G0/G1 phase” value was less than 14% and the “number of cells in the S-phase” value was “substantial decrease”. In data set [4] (Homo sapiens, HCT-116, 72 h), this compound came in with a half-maximal inhibitory concentration (IC50) of roughly 13 µM. This compound displayed a half-maximal inhibitory concentration (IC50) in data set [4] of 13.5 ± 0.2 µM. Further, the formation of colonies entry in data set [5] was “effectively inhibited the formation of colonies in a concentration-dependent manner”. In data set [6], this compound had a 50% inhibitory concentration (IC50) greater than 50 µM.

`O=c1cc(-c2ccccc2)c2c([nH]1)C(O)CCC2` (stereo not shown) [Compound 24, 8-hydroxy-4-phenyl-5,6,7,8-tetrahydro-1H-quinolin-2-one] showed a melting point of 104 to 106 °C. This compound also came in with a half-maximal inhibitory concentration (IC50) in data set [1] greater than 50 µM. The compound also returned an IC50 in data set [2] greater than 50 µM. Besides, in data set [4] (HCT-116, MCF-7, A-549, concentrations up to 50 µM), the “cytotoxicity on tested cell lines” value is listed as “no cytotoxicity”. In data set [4] (Homo sapiens, HCT-116, 72 h), this compound yielded a half-maximal inhibitory concentration (IC50) greater than 50 µM. The compound also gave a half-inhibitory concentration (IC50) in data set [6] greater than 50 µM.
